Test results published in patent US10464927B2, “2,4-disubstituted pyrimidines as CDK inhibitors” (Shanghai Xunhe Pharmaceutical Technology Co. Ltd., priority 2016, dated 2019).

Key:
[1] = biological target: CDK4 (Homo sapiens (Human), UniProt P11802); assay: CDK4 protein kinase activity, Caliper mobility shift assay; format: biochemical; conditions: GST-CDK4(1-303 end), substrate Peptide FAM-P8, 28° C. for 3 h
Protocol: (§1) activity assay: The CDK4 protein kinase activity was measured using the Caliper mobility shift assay (see J. Biomol. Screen, 2009, PP31). The test compound was dissolved in DMSO and diluted with a kinase buffer solution (20 mM HEPES-pH 7.5, 0.01% Triton X-100, 10 mM MgCl2, 2 mM DTT) and 5 μL of compound at 5-fold final concentration of reaction dissolved in 10% DMSO was added in a 384-well plate. The compound-free control well was 5 μL of 10% DMSO, and the no-activity control well was 5 μL of kinase buffer. 10 μL of a 2.5-fold diluted CDK4 enzyme solution (GST-CDK4(1-303 end)) was added and incubated at room temperature for 10 min, and then 10 μL of the 2.5-fold diluted substrate solution Peptide FAM-P8 was added. The reaction was stopped by adding 25 μL of stop solution after incubation at 28° C. for 3 h, and the conversion rate data was read on a Caliper EZ Reader II (Caliper Life Sciences) and the conversion rate was converted to inhibition rate data according to above method. Among them, the inhibition rate %=(max−conversion)/(max−min)×100%.

[2] = biological target: CDK6 (Homo sapiens (Human), UniProt Q00534); assay: CDK6 protein kinase activity, Caliper mobility shift assay; format: biochemical; conditions: GST-CDK6(1-326 end), substrate Peptide FAM-P8, 28° C. for 3 h
Protocol: as §1, with “Activity Assay:” for “activity assay:”, “CDK6” for “CDK4”, “(GST-CDK6(1-326” for “(GST-CDK4(1-303”

Sequence of CDK4 (P11802 whole entry): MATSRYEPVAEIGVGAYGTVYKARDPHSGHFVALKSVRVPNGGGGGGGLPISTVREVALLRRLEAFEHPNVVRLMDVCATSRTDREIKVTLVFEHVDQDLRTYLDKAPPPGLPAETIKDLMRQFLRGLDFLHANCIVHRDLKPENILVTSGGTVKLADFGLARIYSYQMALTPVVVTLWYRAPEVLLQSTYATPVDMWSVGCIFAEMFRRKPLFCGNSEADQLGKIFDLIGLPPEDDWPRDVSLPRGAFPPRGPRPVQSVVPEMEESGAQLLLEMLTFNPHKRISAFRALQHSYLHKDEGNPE
Sequence of CDK4 (P30281 whole entry partner): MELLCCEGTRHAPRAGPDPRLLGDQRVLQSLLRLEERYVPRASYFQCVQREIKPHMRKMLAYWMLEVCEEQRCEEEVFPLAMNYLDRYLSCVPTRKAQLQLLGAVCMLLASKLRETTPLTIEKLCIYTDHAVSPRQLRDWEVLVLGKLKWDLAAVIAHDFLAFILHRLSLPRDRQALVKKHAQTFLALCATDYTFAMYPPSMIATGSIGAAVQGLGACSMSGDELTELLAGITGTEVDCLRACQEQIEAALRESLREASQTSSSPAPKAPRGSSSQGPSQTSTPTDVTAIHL
Sequence of CDK6 (Q00534 whole entry): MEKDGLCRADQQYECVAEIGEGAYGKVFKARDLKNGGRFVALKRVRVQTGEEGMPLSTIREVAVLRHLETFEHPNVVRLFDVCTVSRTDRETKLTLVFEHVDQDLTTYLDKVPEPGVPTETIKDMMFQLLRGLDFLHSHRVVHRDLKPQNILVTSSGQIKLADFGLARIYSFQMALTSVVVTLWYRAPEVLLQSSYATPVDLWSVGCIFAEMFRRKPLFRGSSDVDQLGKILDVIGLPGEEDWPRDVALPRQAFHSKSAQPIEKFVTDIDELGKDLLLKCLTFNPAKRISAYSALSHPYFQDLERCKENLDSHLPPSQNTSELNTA
Sequence of CDK6 (P30281 whole entry partner): as the sequence (P30281 whole entry partner) above

Row | Compound | IC50 [1] [nM] | IC50 [2] [nM]
1 | Cc1c(C(F)(F)F)c2cc(-c3ccnc(Nc4ccc(CN5CCN(C(C)C)CC5)cn4)n3)ccc2n1C [Compound I-16, N-(5-(4-isopropylpiperazin-1-methyl)-pyridin-2-yl)-4-(1,2-dimethyl-3-trifluoromethyl-1H-indol-5-yl)pyrimidin-2-amine] | ≤ 20 | ≤ 20
2 | Cc1nc2cnc(-c3nc(Nc4ccc(N5CCNCC5)cn4)ncc3F)nc2n1C(C)C [Compound I-8, N-(5-(piperazin-1-yl)-pyridin-2-yl)-5-fluoro-4-(9-isopropyl-8-methyl-9H-purin-2-yl)pyrimidin-2-amine] | ≤ 20 | 20 to 100
3 | CCN1CCN(Cc2ccc(Nc3ncc(F)c(-c4ccc5c(c4)cc(C(C)=O)n5C(C)C)n3)nc2)CC1 [Compound I-24, N-(5-(4-ethylpiperazine-1-methyl)-pyridin-2-yl)-5-fluoro-4-(1-isopropyl-2-acetyl-1H-indol-5-yl)pyrimidin-2-amine] | ≤ 20 | ≤ 20
4 | CN(C)C(=O)c1c2ccc(-c3nc(Nc4ccc(N5CCNCC5)cn4)ncc3F)c(F)c2nn1C [Compound I-31, N-(5-(piperazin-1-yl)-pyridin-2-yl)-5-fluoro-4-(2-methyl-3-formic acid diformamido-2H-7-fluoro-indazol-6-yl)pyrimidin-2-amine] | ≤ 20 | ≤ 20
5 | CC(C)c1nnc2ccc(-c3nc(Nc4ccc(N5CCNCC5)cn4)ncc3F)cn12 [Compound I-7, N-(5-(piperazin-1-yl)-pyridin-2-yl)-5-fluoro-4-(3-isopropyl-[1,2,4]triazolo[4,3-a]pyridine-6-yl)pyrimidin-2-amine] | ≤ 20 | ≤ 20
6 | CCN1CCN(c2ccc(Nc3ncc(F)c(-c4ncc5nc(C)n(C(C)C)c5n4)n3)nc2)CC1 [Compound I-48, N-(5-(4-ethylpiperazin-1-yl)-pyridin-2-yl)-5-fluoro-4-(9-isopropyl-8-methyl-9H-purin-2-yl)pyrimidin-2-amine] | ≤ 20 | 100 to 500
7 | CCN1CCN(Cc2ccc(Nc3ncc(F)c(-c4ccc5c(c4)c(C(C)=O)nn5C(C)C)n3)nc2)CC1 [Compound I-44, N-(5-(4-ethylpiperazine-1-methyl)-pyridin-2-yl)-5-fluoro-4-(1-isopropyl-3-acetyl-1H-indazol-5-yl)pyrimidin-2-amine] | ≤ 20 | > 500
8 | CN1CCN(c2ccc(Nc3ncc(F)c(-c4ncc5nc(C(=O)N(C)C)n(C6CCCC6)c5n4)n3)nc2)CC1 [Compound I-37] | ≤ 20 | 20 to 100
9 | CC(=O)c1cn(C2CCCC2)c2ccc(-c3nc(Nc4ccc(N5CCNCC5)cn4)ncc3F)cc12 [Compound I-3, N-(5-(piperazin-1-yl)-pyridin-2-yl)-5-fluoro-4-(1-cyclopentyl-3-acetyl-1H-indol-5-yl)pyrimidin-2-amine] | ≤ 20 | ≤ 20
10 | CC(C)n1c(C(=O)N(C)C)cc2nc(-c3nc(Nc4ccc(N5CCNCC5)cn4)ncc3F)ccc21 [Compound I-25, N-(5-(piperazin-1-yl)-pyridin-2-yl)-5-fluoro-4-(1-isopropyl-2-formic acid diformamido-1H-4-azaindol-5-yl)pyrimidin-2-amine] | ≤ 20 | ≤ 20
11 | CC(C)c1c(C#N)n(C2CC2)c2ccc(-c3nc(Nc4ccc(CN5CCN(C6CC6)CC5)cn4)ncc3F)cc12 [Compound I-17, N-(5-(4-cyclopropylpiperazine-1-methyl)-pyridin-2-yl)-5-fluoro-4-(1-cyclopropyl-2-cyano-3-isopropyl-1H-indol-5-yl)pyrimidin-2-amine] | – | 20 to 100
12 | CC(C)c1c2ccc(-c3nc(Nc4ccc(N5CCNCC5)cn4)ncc3F)c(Cl)c2nn1C [Compound I-30, N-(5-(piperazin-1-yl)-pyridin-2-yl)-5-fluoro-4-(2-methyl-3-isopropyl-2H-7-chloro-indazol-6-yl)pyrimidin-2-amine] | – | 20 to 100
